In patent US20020090380A1, “Novel formulation comprising thymol useful in the treatment of drug resistant bacterial infections” (priority 2000, published 2002):
Where two headings read alike, the source gives them in different places.

Assays:
[1] = system: Mycobacterium smegmetis wild type; format: cell-based
[2] = system: Lom^R mutants of Mycobacterium smegmatis; format: cell-based; conditions: Lom^R mutants
[3] = system: Nal^R mutants of E. coli; format: cell-based, Escherichia coli; conditions: 5 μg/ml
[4] = system: lomefloxacin resistant cells of E. coli; format: cell-based, Escherichia coli; conditions: 2 μg/ml
[5] = system: E. coli CA 8000 (WT); format: cell-based, Escherichia coli

## CC[n+]1c(-c2ccccc2)c2cc(N)ccc2c2ccc(N)cc21 [ethidium bromide]
[1]
  concentration at which the strain is killed: 3 µg/mL

## O=C(O)c1cn(C2CC2)c2cc(N3CCNCC3)c(F)cc2c1=O [Ciprofloxacin, ciprofloxacin]
[2]
  resistance of the mutants: resistant
[3]; CAN 101
  Growth in poison agar medium: −
[3]; CAN 102
  Growth in poison agar medium: −
[3]; CAN 103
  Growth in poison agar medium: −
[3]; CAN 104
  Growth in poison agar medium: −
[3]; CAN 105
  Growth in poison agar medium: −
[3]; CAN 106
  Growth in poison agar medium: −
[3]; CAN 107
  Growth in poison agar medium: −
[3]; CAN 108
  Growth in poison agar medium: −
[3]; CAN 109
  Growth in poison agar medium: −
[3]; CAN 110
  Growth in poison agar medium: −
[3]; CAN 111
  Growth in poison agar medium: −
[3]; CAN 112
  Growth in poison agar medium: −
[3]; CAN 113
  Growth in poison agar medium: −
[3]; CAN 114
  Growth in poison agar medium: −
[3]; CAN 115
  Growth in poison agar medium: −
[3]; CAN 116
  Growth in poison agar medium: −
[3]; CAN 117
  Growth in poison agar medium: −
[3]; CAN 118
  Growth in poison agar medium: −
[3]; CAN 119
  Growth in poison agar medium: −
[3]; CAN 120
  Growth in poison agar medium: −
[3]; CAN 121
  Growth in poison agar medium: −
[3]; CAN 122
  Growth in poison agar medium: −
[3]; CAN 123
  Growth in poison agar medium: −
[3]; CAN 124
  Growth in poison agar medium: −
[3]; CAN 125
  Growth in poison agar medium: −
[3]; CAN 126
  Growth in poison agar medium: −
[4]; CAL 101
  Growth in poison agar medium: +
[4]; CAL 102
  Growth in poison agar medium: +
[4]; CAL 103
  Growth in poison agar medium: +
[4]; CAL 104
  Growth in poison agar medium: +
[4]; CAL 105
  Growth in poison agar medium: +
[4]; CAL 106
  Growth in poison agar medium: +
[4]; CAL 107
  Growth in poison agar medium: +
[4]; CAL 108
  Growth in poison agar medium: +
[5]
  Growth in poison agar medium: −
